The nature of data set [1]: Dynamic Vapor Sorption (DVS). It counts as physicochemical. Conditions: for DVS weight gain from 5 to 95% RH / DVS weight loss from 95 to 5% RH / DVS weight loss upon drying at 5% RH: 25° C.; for DVS weight gain from 5 to 95% RH: adsorption cycle 5 to 95% RH; for DVS weight loss from 95 to 5% RH: desorption cycle 95 to 5% RH. The procedure: DVS analysis was carried out using a TA Instruments Q5000 Dynamic Vapor Sorption analyzer. The instrument was calibrated with standard weights and a sodium bromide standard for humidity. Approximately 10-25 mg of sample was loaded into a metalcoated quartz pan for analysis. The sample was analyzed at 25° C. with a maximum equilibration time of one hour in 10% relative humidity (RH) steps from 5 to 95% RH (adsorption cycle) and from 95 to 5% RH (desorption cycle). The movement from one step to the next occurred either after satisfying the equilibrium criterion of 0.01% weight change or, if the equilibrium criterion was not met, after one hour. The percent weight change values were calculated using Microsoft Excel®.

A short description of data set [2]: Post-DVS XRPD (solid form after the DVS cycle). It is filed as physicochemical. Conditions: XRPD pattern after DVS. An excerpt: The Rigaku Smart-Lab X-ray diffraction system was configured for reflection Bragg-Brentano geometry using a line source X-ray beam. The x-ray source is a Cu Long Fine Focus tube that was operated at 40 kV and 44 mA. That source provides an incident beam profile at the sample that changes from a narrow line at high angles to a broad rectangle at low angles. Beam conditioning slits are used on the line X-ray source to ensure that the maximum beam size is less than 10 mm both along the line and normal to the line. The Bragg-Brentano geometry is a para-focusing geometry controlled by passive divergence and receiving slits with the sample itself acting as the focusing component for the optics. The inherent resolution of Bragg-Brentano geometry is governed in part by the diffractometer radius and the width of the receiving slit used. Typically, the Rigaku Smart-Lab is operated to give peak widths of 0.1° 2θ or less. The axial divergence of the X-ray beam is controlled by 5.0° Soller slits in both the incident and diffracted beam paths. Powder samples were prepared in a low background Si holder using light manual pressure to keep the sample surfaces flat and level with the reference surface of the sample holder. Each sample was analyzed from 2 to 40° 2θ using a continuous scan of 6° 2θ per minute with an effective step size of 0.02° 2θ. DVS analysis was carried out using a TA Instruments Q5000 Dynamic Vapor Sorption analyzer. The instrument was calibrated with standard weights and a sodium bromide standard for humidity. Approximately 10-25 mg of sample was loaded into a metalcoated quartz pan for analysis. The sample was analyzed at 25° C. with a maximum equilibration time of one hour in 10% relative humidity (RH) steps from 5 to 95% RH (adsorption cycle) and from 95 to 5% RH (desorption cycle). The movement from one step to the next occurred either after satisfying the equilibrium criterion of 0.01% weight change or, if the equilibrium criterion was not met, after one hour. The percent weight change values were calculated using Microsoft Excel®.

Setting [3] is: listed as Form A of the besylate salt of Compound 1.
Where [4] appears, read: listed as Form A of the tosylate salt of Compound 1.
Setting [5] is: listed as Form A of the mesylate salt of Compound 1.
The mark [6] stands for this setting: listed as Form A of the sulfate salt of Compound 1.

Where a name gives a salt, the structure may show the parent alone.

Regarding `Cc1nc2cccc(N)c2c(=O)n1C1CCC(=O)NC1=O` (centres unmarked) [Compound 1 besylate salt Form A, 3-(5-amino-2-methyl-4-oxo-4H-quinazolin-3-yl)-piperidine-2,6-dione], in data set [1] (listed as Besylate Form A), the “DVS weight gain from 5 to 95% RH” value is 4.31% gain from 5 to 95% RH, the “DVS weight loss from 95 to 5% RH” value was 4.31% loss from 95 to 5% RH and the “DVS weight loss upon drying at 5% RH” value is reported as 0.16% loss upon drying at 5% RH. In data set [1] (setting [3]), the “DVS weight gain from 5 to 95% RH” value is “about 4.31%” and the “DVS weight loss from 95 to 5% RH” value was “about 4.31%”. Further, the hygroscopicity entry in data set [1] (wording in text, based on DVS) is on record as “moderately hygroscopic”. In addition, the “Post-DVS XRPD” value in data set [2] (listed as Besylate Form A) was “Unchanged”.
Turning to `Cc1nc2cccc(N)c2c(=O)n1C1CCC(=O)NC1=O` (centres unmarked) [Compound 1 tosylate salt Form A, 3-(5-amino-2-methyl-4-oxo-4H-quinazolin-3-yl)-piperidine-2,6-dione], in data set [1] (setting [4]), the “DVS weight gain from 5 to 95% RH” value is reported as “about 1.15%” and the “DVS weight loss from 95 to 5% RH” value is “about 1.17%”. Further, in data set [1] (listed as Tosylate Form A), the “DVS weight gain from 5 to 95% RH” value is recorded as 1.15% gain from 5 to 95% RH, the “DVS weight loss from 95 to 5% RH” value was 1.17% loss from 95 to 5% RH and the “DVS weight loss upon drying at 5% RH” value came out at 0.14% loss upon drying at 5%. In addition, the “Post-DVS XRPD” value in data set [2] (listed as Tosylate Form A) is given as “Tosylate form B”.
As to `Cc1nc2cccc(N)c2c(=O)n1C1CCC(=O)NC1=O` (centres unmarked) [Compound 1 mesylate salt Form A, 3-(5-amino-2-methyl-4-oxo-4H-quinazolin-3-yl)-piperidine-2,6-dione], in data set [1] (setting [5]), the “DVS weight gain from 5 to 95% RH” value is recorded as “about 9.79%” and the “DVS weight loss from 95 to 5% RH” value is “about 7.98%”. Also, in data set [1] (listed as Mesylate Form A), the “DVS weight gain from 5 to 95% RH” value is listed as 9.79% gain from 5 to 95% RH, the “DVS weight loss from 95 to 5% RH” value is 7.98% loss from 95 to 5% RH and the “DVS weight loss upon drying at 5% RH” value is recorded as 0.17% loss upon drying at 5% RH. Moreover, in data set [2] (listed as Mesylate Form A), the “Post-DVS XRPD” value is recorded as “Mesylate Form B”.
As to `Cc1nc2cccc(N)c2c(=O)n1C1CCC(=O)NC1=O` (centres unmarked) [Compound 1 sulfate salt Form A, 3-(5-amino-2-methyl-4-oxo-4H-quinazolin-3-yl)-piperidine-2,6-dione], in data set [1] (setting [6]), the “DVS weight gain from 5 to 95% RH” value was “about 5.36%” and the “DVS weight loss from 95 to 5% RH” value is “about 5.63%”. For the same compound, in data set [1] (listed as Sulfate Form A), the “DVS weight gain from 5 to 95% RH” value is on record as 5.36% gain from 5 to 95% RH, the “DVS weight loss from 95 to 5% RH” value is reported as 5.63% loss from 95 to 5% RH and the “DVS weight loss upon drying at 5% RH” value amounted to 0.21% loss on drying at 5% RH. Also, the “Post-DVS XRPD” value in data set [2] is listed as “unchanged”. The “Post-DVS XRPD” value in data set [2] (listed as Sulfate Form A) is “Unchanged”.

For the origin of these results see patent publication US20180258064A1, “SOLID FORMS OF 3-(5-AMINO-2-METHYL-4-OXO-4H-QUINAZOLIN-3-YL)-PIPERIDINE-2,6-DIONE, AND THEIR PHARMACEUTICAL COMPOSITIONS AND USES” (Celgene Corporation, priority 2017, published 2018).
